{"source": "patent US5434141A", "about": "“Medicament for the treatment of hyperlipidaemia and/or atherosclerosis” (Steigerwald Arzneimittelwerk GmbH, priority 1990, dated 1995)", "key": {"[1]": {"test": "Experiment 2: hepatic lipid concentration in hamsters fed a lipidaemia diet, 4 weeks", "type": "in vivo, male golden hamsters", "conditions": "four weeks", "experimental": "(§1) 3 Groups each of 20 male golden hamsters were fed for 4 weeks with a lipidaemia diet (hamster maintenance diet and 2% cholesterol). The feed in the two treated groups was additionally supplemented with in each case 5% galacturonic acid or DEAE-polygalacturonic acid (DEAE=diethylaminoethyl).\n(§2) 3 Groups each of 20 male golden hamsters were treated for 4 weeks like the animals described in 1. […] Group 1 was the lipidaemia control."}, "[2]": {"experimental": "as §1, §2"}, "[3]": {"test": "Tolerability / toxic effects (general statement)", "conditions": "in vivo"}, "[4]": {"test": "Experiment 1: serum cholesterol and lipid concentration in hamsters fed a lipidaemia diet, 4 weeks", "type": "in vivo, male golden hamsters", "conditions": "for hypocholesterolaemic / lipid-lowering action, in words: serum", "experimental": "(§3) 3 Groups each of 20 male golden hamsters were fed for 4 weeks with a lipidaemia diet (hamster maintenance diet and 2% cholesterol).\n(§4) The dose taken was between 4 and 5 g/kg of body weight and day.\n(§5) After 4 weeks the animals were sacrificed and the serum and hepatic lipid concentration was measured. The results of the analyses are compiled in Tables 1, 2 and 3."}, "[5]": {"test": "Experiment 1: hepatic lipid concentration in hamsters fed a lipidaemia diet, 4 weeks", "type": "in vivo, male golden hamsters", "conditions": "four weeks", "experimental": "as §3, §4, §5"}, "[6]": {"conditions": "in vivo; cited from earlier work"}, "[7]": {"conditions": "by contrast with pectin; cited from earlier work"}, "[8]": {"conditions": "mean, n = 20/group, 5% in feed, * p ≤ 0.05"}, "[9]": {"conditions": "mean, n = 20/group, 5% in feed, four weeks"}, "[10]": {"conditions": "mean, n = 20/group, 5% in feed, four weeks, * p ≤ 0.05"}, "[11]": {"conditions": "significant, p≤0.05, four weeks"}}, "note": "Entries after “also recorded” stand apart in the source; their conditions may differ. Read-outs that look alike come from different tables or passages of the source."}
{"molecule": "polygalacturonic acid", "values": [{"measurement": "Hepatic cholesterol, D = difference from the control group", "setting": "[1]; 5% in feed", "result": -26, "unit": "%"}, {"measurement": "Hepatic total lipids, D = difference from the control group", "setting": "[1]; 5% in feed", "result": -25, "unit": "%"}, {"measurement": "Hepatic cholesterol concentration", "setting": "[1]; [8]", "result": 22.1, "unit": "mg/g wet weight"}, {"measurement": "Hepatic total lipids concentration", "setting": "[1]; [8]", "result": 67.4, "unit": "mg/g wet weight"}, {"measurement": "lowering of hepatic cholesterol concentration", "setting": "[1]; significant", "result": 26, "unit": "%"}, {"measurement": "lowering of hepatic total lipid concentration", "setting": "[1]; significant", "result": 25, "unit": "%"}, {"measurement": "Free cholesterol in serum, D = difference from the control group", "setting": "[2]; 5% in feed, four weeks", "result": -32, "unit": "%"}, {"measurement": "HDL-cholesterol in serum, D = difference from the control group", "setting": "[2]; 5% in feed, four weeks", "result": -15, "unit": "%"}, {"measurement": "LDL-cholesterol in serum, D = difference from the control group", "setting": "[2]; 5% in feed, four weeks", "result": -18, "unit": "%"}, {"measurement": "Phospholipids in serum, D = difference from the control group", "setting": "[2]; 5% in feed, four weeks", "result": -19, "unit": "%"}, {"measurement": "Total cholesterol in serum, D = difference from the control group", "setting": "[2]; 5% in feed, four weeks", "result": -13, "unit": "%"}, {"measurement": "Total lipids in serum, D = difference from the control group", "setting": "[2]; 5% in feed, four weeks", "result": -14, "unit": "%"}, {"measurement": "VLDL + LDL-cholesterol in serum, D = difference from the control group", "setting": "[2]; 5% in feed, four weeks", "result": -8, "unit": "%"}, {"measurement": "VLDL-cholesterol in serum, D = difference from the control group", "setting": "[2]; 5% in feed, four weeks", "result": -4, "unit": "%"}, {"measurement": "Phospholipids concentration in serum", "setting": "[2]; [9]", "result": 385, "unit": "mg/dL"}, {"measurement": "Total lipids concentration in serum", "setting": "[2]; [9]", "result": 1338, "unit": "mg/dL"}, {"measurement": "Triglycerides concentration in serum", "setting": "[2]; [9]", "result": 269, "unit": "mg/dL"}, {"measurement": "Free cholesterol concentration in serum", "setting": "[2]; [10]", "result": 80, "unit": "mg/dL"}, {"measurement": "HDL-cholesterol concentration in serum", "setting": "[2]; [10]", "result": 149, "unit": "mg/dL"}, {"measurement": "LDL-cholesterol concentration in serum", "setting": "[2]; [10]", "result": 163, "unit": "mg/dL"}, {"measurement": "Total cholesterol concentration in serum", "setting": "[2]; [10]", "result": 361, "unit": "mg/dL"}, {"measurement": "VLDL + LDL-cholesterol concentration in serum", "setting": "[2]; [10]", "result": 212, "unit": "mg/dL"}, {"measurement": "VLDL-cholesterol concentration in serum", "setting": "[2]; [10]", "result": 48, "unit": "mg/dL"}, {"measurement": "lowering of serum phospholipid concentration", "setting": "[2]; significant, four weeks", "result": 19, "unit": "%"}, {"measurement": "lowering of serum total lipid concentration", "setting": "[2]; significant, four weeks", "result": 14, "unit": "%"}, {"measurement": "lowering of serum HDL-cholesterol", "setting": "[2]; [11]", "result": 15, "unit": "%"}, {"measurement": "lowering of serum free cholesterol", "setting": "[2]; [11]", "result": 32, "unit": "%"}, {"measurement": "lowering of serum total cholesterol", "setting": "[2]; [11]", "result": 13, "unit": "%"}]}
{"molecule": "O=C(O)[C@H]1O[C@H](O)[C@H](O)[C@@H](O)[C@H]1O", "note": "[galacturonic acid, α-D-galacturonic acid]", "values": [{"measurement": "tolerability", "setting": "[3]", "result": "as a rule well tolerated"}, {"measurement": "Free cholesterol in serum, D = difference from the control group", "setting": "[4]; 5% in feed, four weeks", "result": -19, "unit": "%"}, {"measurement": "HDL-cholesterol in serum, D = difference from the control group", "setting": "[4]; 5% in feed, four weeks", "result": -20, "unit": "%"}, {"measurement": "LDL-cholesterol in serum, D = difference from the control group", "setting": "[4]; 5% in feed, four weeks", "result": -23, "unit": "%"}, {"measurement": "Phospholipids in serum, D = difference from the control group", "setting": "[4]; 5% in feed, four weeks", "result": -17, "unit": "%"}, {"measurement": "Total cholesterol in serum, D = difference from the control group", "setting": "[4]; 5% in feed, four weeks", "result": -20, "unit": "%"}, {"measurement": "Total lipids in serum, D = difference from the control group", "setting": "[4]; 5% in feed, four weeks", "result": -18, "unit": "%"}, {"measurement": "Triglycerides in serum, D = difference from the control group", "setting": "[4]; 5% in feed, four weeks", "result": "+7%"}, {"measurement": "VLDL + LDL-cholesterol in serum, D = difference from the control group", "setting": "[4]; 5% in feed, four weeks", "result": -20, "unit": "%"}, {"measurement": "VLDL-cholesterol in serum, D = difference from the control group", "setting": "[4]; 5% in feed, four weeks", "result": -14, "unit": "%"}, {"measurement": "Phospholipids concentration in serum", "setting": "[4]; [9]", "result": 322, "unit": "mg/dL"}, {"measurement": "Total lipids concentration in serum", "setting": "[4]; [9]", "result": 1060, "unit": "mg/dL"}, {"measurement": "Triglycerides concentration in serum", "setting": "[4]; [9]", "result": 216, "unit": "mg/dL"}, {"measurement": "Free cholesterol concentration in serum", "setting": "[4]; [10]", "result": 96, "unit": "mg/dL"}, {"measurement": "HDL-cholesterol concentration in serum", "setting": "[4]; [10]", "result": 118, "unit": "mg/dL"}, {"measurement": "LDL-cholesterol concentration in serum", "setting": "[4]; [10]", "result": 117, "unit": "mg/dL"}, {"measurement": "Total cholesterol concentration in serum", "setting": "[4]; [10]", "result": 271, "unit": "mg/dL"}, {"measurement": "VLDL + LDL-cholesterol concentration in serum", "setting": "[4]; [10]", "result": 153, "unit": "mg/dL"}, {"measurement": "VLDL-cholesterol concentration in serum", "setting": "[4]; [10]", "result": 36, "unit": "mg/dL"}, {"measurement": "hypocholesterolaemic / lipid-lowering action, in words", "setting": "[4]", "result": "significant decrease in the cholesterol and lipid concentrations; also recorded: has a hypocholesterolaemic action"}, {"measurement": "hypocholesterolaemic / lipid-lowering action, in words", "setting": "[4]; listed as α-D-galacturonic acid", "result": "shows a hypocholesterolaemic action in the serum"}, {"measurement": "lowering of serum HDL-cholesterol", "setting": "[4]; significant, four weeks", "result": 20, "unit": "%"}, {"measurement": "lowering of serum LDL-cholesterol", "setting": "[4]; significant, four weeks", "result": 23, "unit": "%"}, {"measurement": "lowering of serum VLDL- plus LDL-cholesterol", "setting": "[4]; significant, four weeks", "result": 20, "unit": "%"}, {"measurement": "lowering of serum free cholesterol", "setting": "[4]; significant, four weeks", "result": 19, "unit": "%"}, {"measurement": "lowering of serum phospholipid concentration", "setting": "[4]; significant, four weeks", "result": 17, "unit": "%"}, {"measurement": "lowering of serum total lipid concentration", "setting": "[4]; significant, four weeks", "result": 18, "unit": "%"}, {"measurement": "lowering of serum concentration of total cholesterol", "setting": "[4]; [11]", "result": 20, "unit": "%"}, {"measurement": "Hepatic cholesterol, D = difference from the control group", "setting": "[5]; 5% in feed", "result": -9, "unit": "%"}, {"measurement": "Hepatic total lipids, D = difference from the control group", "setting": "[5]; 5% in feed", "result": -34, "unit": "%"}, {"measurement": "Hepatic cholesterol concentration", "setting": "[5]; [8]", "result": 27, "unit": "mg/g wet weight"}, {"measurement": "Hepatic total lipids concentration", "setting": "[5]; [8]", "result": 111, "unit": "mg/g wet weight"}, {"measurement": "reduction of total lipid concentration in the liver", "setting": "[5]; significant", "result": 34, "unit": "%"}, {"measurement": "toxic effects", "setting": "[6]", "result": "No toxic effects are known"}, {"measurement": "solubility in water", "setting": "[7]", "result": "readily soluble in water"}]}
